Assay [1] relates to C57BL/6 mice. Nature of the assay: mouse warm water tail withdrawal. In kind it is in vivo.
Assay [2] concerns the target mu opioid receptor (MOR) (Rattus norvegicus, UniProt P33535). Nature of the assay: [3H]diprenorphine competitive displacement binding, C6-MOR membranes.
Assay [3] has as its target delta opioid receptor (DOR) (Rattus norvegicus, UniProt P33533). Nature of the assay: antagonism of DPDPE-stimulated GTPγS binding at DOR. In kind it is biochemical.

Structures are written as SMILES.

Sequence of delta opioid receptor (DOR) (P33533 whole entry): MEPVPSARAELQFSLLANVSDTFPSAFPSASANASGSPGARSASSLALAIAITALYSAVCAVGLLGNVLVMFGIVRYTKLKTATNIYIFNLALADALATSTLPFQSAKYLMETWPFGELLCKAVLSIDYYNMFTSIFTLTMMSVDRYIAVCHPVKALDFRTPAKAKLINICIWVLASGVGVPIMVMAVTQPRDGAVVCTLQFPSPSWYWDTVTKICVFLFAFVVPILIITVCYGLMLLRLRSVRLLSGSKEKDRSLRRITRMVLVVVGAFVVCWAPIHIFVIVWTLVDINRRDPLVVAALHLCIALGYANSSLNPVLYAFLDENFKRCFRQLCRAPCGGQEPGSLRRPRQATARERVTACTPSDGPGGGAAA
Sequence of mu opioid receptor (MOR) (P33535 whole entry): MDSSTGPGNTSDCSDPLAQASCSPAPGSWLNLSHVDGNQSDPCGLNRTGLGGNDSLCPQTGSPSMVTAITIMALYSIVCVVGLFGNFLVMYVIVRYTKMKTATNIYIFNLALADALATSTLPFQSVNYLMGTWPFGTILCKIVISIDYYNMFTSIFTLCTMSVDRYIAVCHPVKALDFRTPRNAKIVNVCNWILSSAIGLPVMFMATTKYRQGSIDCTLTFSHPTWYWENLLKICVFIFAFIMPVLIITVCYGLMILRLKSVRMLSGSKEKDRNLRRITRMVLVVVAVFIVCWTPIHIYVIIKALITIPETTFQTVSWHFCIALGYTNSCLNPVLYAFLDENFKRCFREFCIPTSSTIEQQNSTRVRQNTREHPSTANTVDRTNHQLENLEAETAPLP

As to `Cc1cc(O)cc(C)c1C[C@H](N)C(=O)N[C@@H]1CCNc2ccc(Cc3ccccc3)cc21` [1 (4R)], in assay [1] (Mus musculus, ip, read-out: ED50, tail withdrawal latency), the ED50 was approximately 6 µmol/kg. The “antinociceptive potency compared with morphine” value in assay [1] (mouse WWTW after intraperitoneal administration) was “approximately equipotent to morphine”. The “time maximal antinociception is maintained” value in assay [1] (mouse WWTW time course, 10 mg/kg ip) is listed as “approximately 60 minutes”. In assay [1] (naltrexone 1mg/kg ip, 30 min pretreatment, mouse WWTW), the “effect of naltrexone pretreatment on dose/response curve” value is “rightward shift”.
Compound `Cc1cc(O)cc(C)c1C[C@H](N)C(=O)N[C@@H]1CCNc2ccc(Cc3cccc4ccccc34)cc21` [Compound 15b, (2S)-2-Amino-3-(4-hydroxy-2,6-dimethylphenyl)-N-(6-(naphthalen-1-ylmethyl)-1,2,3,4-tetrahydroquinolin-4-yl)propanamide] yielded a Ki in assay [2] of 0.76 ± 0.14 nM.
Regarding `Cc1cc(O)cc(C)c1C[C@H](N)C(=O)NC1CCNc2ccc(Cc3ccc4ccccc4c3)cc21` (stereo partly drawn) [Compound 15c, (2S)-2-Amino-3-(4-hydroxy-2,6-dimethylphenyl)-N-(6-(naphthalen-2-ylmethyl)-1,2,3,4-tetrahydroquinolin-4-yl)propanamide], in assay [3], the Kb amounted to 34.3 nM.

The values above are taken from publication PMC3618660 (Journal of medicinal chemistry, 2013).
